Reference: PMC11747885, “Potent inhibitors of the human RNA ligase Rlig1 highlights its role in RNA integrity maintenance under oxidative cellular stress” (Chemical Science, 2025)
Values joined by “and” are separate entries in the source; they are usually repeats but may differ in a detail not shown here. Equal entries are not always repeated. Where two headings read alike, the source gives them in different places. Non-standard residues stand in square brackets, D forms with d. Residues, ends and D or L forms follow the SMILES beside them. *: point of attachment. Sta = CC(C)C[C@H](N)[C@@H](O)CC(=O)O; Isovaleryl = CC(C)CC(=O)*

Key:
[1] = biological target: T1, Rlig1-AMP (Homo sapiens, UniProt Q8N999); assay: FRET-based high-throughput screening of inhibitors for Rlig1-AMP; type: biochemical; details: for 1-D Distance.npi: MedChemExpress library; for Raw data [w Enyzm]: with enzyme; for Raw data [w/o Enzym]: without enzyme
T1 construct: made in house; host or cells: E. coli BL21 (DE3), pET15b-Rlig1
T1 sequence (Q8N999 whole entry): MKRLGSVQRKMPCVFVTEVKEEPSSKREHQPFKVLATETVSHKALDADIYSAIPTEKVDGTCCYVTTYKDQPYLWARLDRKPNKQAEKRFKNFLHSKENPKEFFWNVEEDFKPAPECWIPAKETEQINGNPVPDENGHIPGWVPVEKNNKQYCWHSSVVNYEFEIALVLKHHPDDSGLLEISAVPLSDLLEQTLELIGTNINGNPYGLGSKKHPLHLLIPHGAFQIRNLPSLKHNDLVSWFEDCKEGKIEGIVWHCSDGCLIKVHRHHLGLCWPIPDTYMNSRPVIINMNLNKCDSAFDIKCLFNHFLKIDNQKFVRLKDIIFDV

[2] = tested on: PI5P4Kα; design: method as in MedChemExpress [1]; details: ref MedChemExpress [1], cited from earlier work
[3] = biological target: protein kinase C (PKC); design: method as in MedChemExpress; details: PKC activity; ref MedChemExpress; cited from earlier work
[4] = ref MedChemExpress, cited from earlier work
[5] = tested on: pepsin; design: method as in MedChemExpress; details: ref MedChemExpress, cited from earlier work
[6] = biological target: proctase; design: method as in MedChemExpress; details: ref MedChemExpress, cited from earlier work
[7] = tested on: acid protease; design: method as in MedChemExpress; details: ref MedChemExpress, cited from earlier work
[8] = DMSO; ultrasonic/warming; ref MedChemExpress; cited from earlier work
[9] = tested on: PKC; design: method as in MedChemExpress; details: ref MedChemExpress, cited from earlier work
[10] = sheet HTS hits, difference of raw data w/o and w enzyme
[11] = HTS hits, difference of raw data without and with enzyme
[12] = HTS hits, difference of raw data w/o and w enzyme

SMILES | 1-D Distance [1, 12] | 1-D Distance.npi ([1]; sheet HTS hits) | 1-D Distance [1, 10] | Raw data [w Enyzm] ([1]; sheet HTS hits) | Raw data [w/o Enzym] ([1]; sheet HTS hits) | 1-D Distance [1, 11] | Raw data [w Enyzm] ([1]; HTS hits) | Raw data [w/o Enzym] ([1]; HTS hits) | IC50 [3] [µM] | solubility, DMSO [8] | other results
COc1cc(/C=C(\C#N)C(=O)c2ccc(O)c(O)c2)cc(I)c1O [I-OMe-Tyrphostin AG 538] |  | 98.3407 | 515 | 1659 | 2174 |  |  |  |  |  | IC50 ([2]; ATP-competitive): 1 µM
Cl.Cl.O=C1c2c(O)ccc(O)c2C(=O)c2c(NCCNCCO)ccc(NCCNCCO)c21 [Mitoxantrone (dihydrochloride)] |  |  |  |  |  | 208 | 3238 | 3030 | 8.5 |  | 1-D Distance.npi ([1]; HTS hits): 101.642
O=C1c2c(O)ccc(O)c2C(=O)c2c(NCCNCCO)ccc(NCCNCCO)c21 [Mitoxantrone] |  |  |  |  |  | 308 | 3553 | 3245 | 8.5 |  | solubility ([4]; DMSO): 62.5 mg/mL and 140.61 mM; solubility ([4]; H2O): 100 mg/mL and 224.98 mM
CN(C)C/C=C/C(=O)Nc1ccc(C(=O)Nc2cccc(Nc3cc(-c4c[nH]c5ccccc45)ncn3)c2)cc1 [THZ-P1-2] |  | 94.2865 | 656 | 5306 | 4650 |  |  |  |  |  | IC50 [2]: 0.19 µM

The next lines start with results.

1-D Distance [1, 12] | SMILES | 1-D Distance.npi ([1]; sheet HTS hits) | 1-D Distance [1, 10] | Raw data [w Enyzm] ([1]; sheet HTS hits) | Raw data [w/o Enzym] ([1]; sheet HTS hits) | 1-D Distance [1, 11] | Raw data [w Enyzm] ([1]; HTS hits) | Raw data [w/o Enzym] ([1]; HTS hits) | IC50 [3] [µM] | solubility, DMSO [8] | other results
1754 | CC(C)CC(=O)N[C@H](C(=O)N[C@H](C(=O)N[C@@H](CC(C)C)[C@@H](O)CC(=O)N[C@@H](C)C(=O)N[C@@H](CC(C)C)[C@@H](O)CC(=O)O)C(C)C)C(C)C [Pepstatin] (Isovaleryl-VV[Sta]A[Sta]-OH) |  |  |  |  |  | 8928 | 10682 |  | 125 mg/mL and 182.24 mM | IC50 ([5]; substrate casein, read-out: IC50, casein-pepsin): 0.15 µM; IC50 ([5]; substrate hemoglobin, read-out: IC50, hemoglobin-pepsin): 0.0045 µM; IC50 ([6]; substrate casein, read-out: IC50, casein-proctase): 0.29 µM; IC50 ([6]; substrate hemoglobin, read-out: IC50, hemoglobin-proctase): 0.0062 µM; IC50 ([7]; substrate casein, read-out: IC50, casein-acid protease): 0.52 µM; IC50 ([7]; substrate hemoglobin, read-out: IC50, hemoglobin-acid protease): 0.26 µM
1660 | CCCCC(=O)OCC(=O)[C@]1(O)Cc2c(O)c3c(c(O)c2[C@@H](O[C@H]2C[C@H](NC(=O)C(F)(F)F)[C@H](O)[C@H](C)O2)C1)C(=O)c1c(OC)cccc1C3=O [Valrubicin] |  |  |  |  |  | 2541 | 4201 |  | 125 mg/mL and 172.74 mM | IC50 ([9]; PDBu-induced, read-out: IC50, PDBu-induced PKC activation): 1.25 µM; IC50 ([9]; TPA-induced, read-out: IC50, TPA-induced PKC activation): 0.85 µM
